Measurements published in patent US8883963B2 (Cadila Healthcare Limited, priority 2007, dated 2014).
Starred links: 1 amine or outer side, 2 acyl side, 3 side chain; linkers in the order of their positions; H or OH if unused. Non-standard residues stand in square brackets, D forms with d. Residues, ends and D or L forms follow the SMILES beside them. ξ: configuration not given here. *: point of attachment. X3 = CCc1cc(OC)ccc1-c1ccc(CC(N*)C(=S)NC(CCCc2ccccc2)C(N)=O)cc1; ξNMeBip(2'-Et,4'-OMe) = CCc1cc(OC)ccc1-c1ccc(CC(NC)C(=O)O)cc1; Leu(5,5,5,5',5',5'-F6) = N[C@@H](CC(C(F)(F)F)C(F)(F)F)C(=O)O; X4 = CCc1cc(OC)ccc1-c1ccc(CC(CNC(CCCc2ccccc2F)C(N)=O)N*)cc1; ξBip(2'-Et-4'-OMe) = CCc1cc(OC)ccc1-c1ccc(CC(N)C(=O)O)cc1; ξNva(5-(3,5-Me2-Ph)) = Cc1cc(C)cc(CCCC(N)C(=O)O)c1; ξNva(5-(4-Cl-2-MePh)) = Cc1cc(Cl)ccc1CCCC(N)C(=O)O; ξNMeNva(5-(2-F-Ph)) = CNC(CCCc1ccccc1F)C(=O)O; ξαMePhe(2-F) = CC(N)(Cc1ccccc1F)C(=O)O; X2 = O=C(C(CCCc1ccccc1Cl)N[*:1])[*:2]; NMeD = CN[C@@H](CC(=O)O)C(=O)O; aThr = C[C@H](O)[C@H](N)C(=O)O; Ac3c = NC1(C(=O)O)CC1; Aib = CC(C)(N)C(=O)O

Columns and labels:
Assay type in all cases: in vitro ADME
[1] = target: DPP IV (Homo sapiens, UniProt P27487); assay: Stability against DPP IV enzyme; conditions: 37° C.; for % degradation of peptidomimetics in 24 h when incubated with DPP-IV enzyme: 2 μM peptidomimetic; for half-life at 2 μM: DPP IV enzyme, pH 7.8, 2 μM peptidomimetic, read-out: half-life (t1/2) when incubated with DPP-IV enzyme
Sequence of DPP IV (P27487 whole entry, species assumed): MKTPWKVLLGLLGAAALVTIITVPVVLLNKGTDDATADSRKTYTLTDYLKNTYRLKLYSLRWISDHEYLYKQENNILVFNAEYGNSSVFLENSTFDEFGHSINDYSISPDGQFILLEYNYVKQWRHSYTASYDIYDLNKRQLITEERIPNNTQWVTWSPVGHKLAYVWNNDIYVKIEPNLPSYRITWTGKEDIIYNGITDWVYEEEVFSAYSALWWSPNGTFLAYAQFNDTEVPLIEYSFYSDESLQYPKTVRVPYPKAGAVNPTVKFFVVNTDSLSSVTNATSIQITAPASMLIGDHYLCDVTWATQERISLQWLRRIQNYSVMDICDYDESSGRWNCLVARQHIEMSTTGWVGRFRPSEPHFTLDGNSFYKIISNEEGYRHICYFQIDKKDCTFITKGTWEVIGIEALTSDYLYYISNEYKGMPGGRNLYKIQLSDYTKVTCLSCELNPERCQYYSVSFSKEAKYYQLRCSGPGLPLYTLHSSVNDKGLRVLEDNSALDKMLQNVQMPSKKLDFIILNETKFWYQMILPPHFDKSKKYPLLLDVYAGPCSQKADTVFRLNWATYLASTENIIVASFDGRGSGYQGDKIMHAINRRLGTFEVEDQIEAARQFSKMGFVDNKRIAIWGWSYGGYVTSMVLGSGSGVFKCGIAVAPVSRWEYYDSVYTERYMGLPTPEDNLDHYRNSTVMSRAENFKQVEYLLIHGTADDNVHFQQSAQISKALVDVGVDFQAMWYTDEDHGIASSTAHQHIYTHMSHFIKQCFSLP
Description: (§1) Reactions were terminated by the addition of TFA/H2O (15 mL, 10% (v/v)). […] The column was equilibrated with TFA/H20, at a flow rate of 1 mL/min.

[2] = Stability in human plasma; conditions: 2 μM peptidomimetic, pooled human plasma, 37° C.; for half-life at 2 μM: pH 7.8, read-out: half-life (t1/2) when incubated with human plasma
Description: as §1

[3] = Stability in simulated gastric fluid; conditions: 2 μM peptidomimetic, simulated gastric fluid pH 1.5, 37° C.; for half-life at 2 μM: read-out: half-life (t1/2) when incubated with simulated gastric fluid
Description: as §1

[4] = Stability in simulated intestinal fluid; conditions: 2 μM peptidomimetic, simulated intestinal fluid pH 7.5, 37° C.; for half-life at 2 μM: read-out: half-life (t1/2) when incubated with simulated intestinal fluid
Description: as §1

[5] = Stability in liver microsomes; conditions: 2 μM peptidomimetic, human liver microsomes, 37° C.; for half-life at 2 μM: pH 7.8, read-out: half-life (t1/2) when incubated with liver microsomes
Description: as §1

Structure (SMILES)	% degradation of peptidomimetics in 24 h when incubated with DPP-IV enzyme [1] [%]	half-life at 2 μM [1] [h]	% degradation of peptidomimetics in 24 h when incubated with human plasma [2] [%]	half-life at 2 μM [2] [h]	% degradation of peptidomimetics in 24 h when incubated with simulated gastric fluid [3] [%]	half-life at 2 μM [3] [h]	% degradation of peptidomimetics in 24 h when incubated with simulated intestinal fluid [4] [%]	half-life at 2 μM [4] [h]	half-life (t1/2) when incubated with liver microsomes [5]	% degradation of peptidomimetics in 24 h when incubated with liver microsomes [5] [%]	half-life (t1/2) when incubated with simulated gastric fluid [3]	half-life (t1/2) when incubated with simulated intestinal fluid [4]	half-life at 2 μM [5] [h]	half-life (t1/2) when incubated with human plasma [2]
CCc1cc(OC)ccc1-c1ccc(CC(NC(=O)[C@H](CC(=O)O)NC(=O)[C@H](CO)NC(=O)[C@@H](NC(=O)[C@H](Cc2ccccc2)NC(=O)[C@@H](NC(=O)CNC(=O)[C@H](CCC(N)=O)NC(=O)[C@H](CO)NC(=O)[C@@H](N)Cc2c[nH]cn2)[C@@H](C)O)[C@@H](C)O)C(=O)NC(CCCc2ccc(Cl)cc2C)C(N)=O)cc1 (some centres unmarked) [compound 8] (H-HSQGTFTSD[ξBip(2'-Et-4'-OMe)][ξNva(5-(4-Cl-2-MePh))]-NH2)	00	> 24	00	> 24	00	> 24	00	> 24	(5) h	35				
CCc1cc(OC)ccc1-c1ccc(CC(NC(=O)[C@H](CC(=O)O)NC(=O)[C@H](CO)NC(=O)[C@@H](NC(=O)[C@H](Cc2ccccc2)NC(=O)[C@@H](NC(=O)CNC(=O)[C@H](CCC(N)=O)NC(=O)[C@H](C)NC(=O)[C@@H](N)Cc2c[nH]cn2)[C@@H](C)O)[C@@H](C)O)C(=O)NC(CCCc2cc(C)cc(C)c2)C(N)=O)cc1 (some centres unmarked) [compound 14] (H-HAQGTFTSD[ξBip(2'-Et-4'-OMe)][ξNva(5-(3,5-Me2-Ph))]-NH2)	74	9	75	8	12		46			83	(8) h	(6) h	1	
CCc1cc(OC)ccc1-c1ccc(CC(NC(=O)[C@H](CC(=O)O)NC(=O)[C@H](CO)NC(=O)[C@@H](NC(=O)[C@H](Cc2ccccc2)NC(=O)[C@@H](NC(=O)CNC(=O)[C@H](CCC(N)=O)NC(=O)C2(NC(=O)[C@@H](N)Cc3c[nH]cn3)CC2)[C@@H](C)O)[C@@H](C)O)C(=O)NC(CCCc2ccccc2Cl)C(N)=O)cc1 (some centres unmarked) [compound 74] (H-H[Ac3c]QGTFTSD[ξBip(2'-Et-4'-OMe)][X2]-NH2)	76		78		100	0.5	100	0.5		100			0.5	(9) h
CCc1cc(OC)ccc1-c1ccc(CC(CNC(CCCc2ccccc2F)C(N)=O)NC(=O)[C@H](CC(=O)O)NC(=O)[C@H](CO)NC(=O)[C@@H](NC(=O)C(C)(Cc2ccccc2F)NC(=O)[C@@H](NC(=O)CNC(=O)[C@H](CC(C(F)(F)F)C(F)(F)F)NC(=O)C(C)(C)NC(=O)[C@@H](N)Cc2c[nH]cn2)[C@H](C)O)[C@H](C)O)cc1 (some centres unmarked) [compound 214] (H-H[Aib][Leu(5,5,5,5',5',5'-F6)]G[aThr][ξαMePhe(2-F)][aThr]SD-X4)	76		78		100	0.5	100	0.5		100			0.5	(9) h
CCc1cc(OC)ccc1-c1ccc(CC(CNC(CCCc2ccccc2)C(N)=O)NC(=O)[C@H](CC(=O)O)NC(=O)[C@H](CO)NC(=O)[C@@H](NC(=O)C(C)(Cc2ccccc2F)NC(=O)[C@@H](NC(=O)CNC(=O)[C@H](CC(C(F)(F)F)C(F)(F)F)NC(=O)C(C)(C)NC(=O)[C@@H](N)Cc2c[nH]cn2)[C@H](C)O)[C@H](C)O)cc1 (some centres unmarked) [compound 215]	00	> 24	00	> 24	00	> 24	00	> 24	(5) h	32				
CCc1cc(OC)ccc1-c1ccc(CC(NC(=O)[C@H](CC(=O)O)NC(=O)[C@H](CO)NC(=O)[C@@H](NC(=O)C(C)(Cc2ccccc2F)NC(=O)[C@@H](NC(=O)CNC(=O)[C@H](CC(C(F)(F)F)C(F)(F)F)NC(=O)C(C)(C)NC(=O)[C@@H](N)Cc2c[nH]cn2)[C@H](C)O)[C@H](C)O)C(=S)NC(CCCc2ccccc2)C(N)=O)cc1 (some centres unmarked) [compound 219] (H-H[Aib][Leu(5,5,5,5',5',5'-F6)]G[aThr][ξαMePhe(2-F)][aThr]SD-X3)	00	> 24	00	> 24	00	> 24	00	> 24	(5) h	33				
CCc1cc(OC)ccc1-c1ccc(CC(C(=O)N(C)C(CCCc2ccccc2F)C(N)=O)N(C)C(=O)[C@H](CC(=O)O)N(C)C(=O)[C@H](CO)NC(=O)[C@@H](NC(=O)C(C)(Cc2ccccc2F)NC(=O)[C@@H](NC(=O)CNC(=O)[C@H](CC(C(F)(F)F)C(F)(F)F)NC(=O)C(C)(C)NC(=O)[C@@H](N)Cc2c[nH]cn2)[C@H](C)O)[C@H](C)O)cc1 (some centres unmarked) [compound 221] (H-H[Aib][Leu(5,5,5,5',5',5'-F6)]G[aThr][ξαMePhe(2-F)][aThr]S[NMeD][ξNMeBip(2'-Et,4'-OMe)][ξNMeNva(5-(2-F-Ph))]-NH2)	00	> 24	00	> 24	00	> 24	00	> 24	(5) h	32				
CCc1cc(OC)ccc1-c1ccc(CC(NC(=O)[C@H](CC(=O)O)NC(=O)[C@H](CO)NC(=O)[C@@H](NC(=O)C(C)(Cc2ccccc2F)NC(=O)[C@@H](NC(=O)CNC(=O)[C@H](CC(C(F)(F)F)C(F)(F)F)NC(=O)C(C)(C)NC(=O)[C@@H](N)Cc2c[nH]cn2)[C@H](C)O)[C@@H](C)O)C(=O)NC(CCCc2ccccc2)C(N)=O)cc1 (some centres unmarked) [compound 226]	74		75		100	0.5	100	0.5		100			0.5	(9) h
